In patent publication US20040213771A1, “Targets and screens for agents useful in controlling parasitic nematodes” (priority 2001, published 2004):
Like-named read-outs stand apart in the source and are kept apart here.

Legend:
[1] = system: C. elegans wild-type (N2) and nhr-8(ok186) mutant animals; details: for Sensitivity of nhr-8(ok186) mutant animals compared with wild-type (N2), L1 assay: 1% DMSO, 20° C., ~72 hours, FIGS. 13 and 14
Description: Assays for nematode sensitivity to toxic compounds known to induce mammalian cytochrome P450 expression (β-naphthaflavone, primaquine, and atrazine, available from Sigma) were performed in polystyrene 24-well tissue culture plates (Costar, Corning, N.Y.). Each culture well was filled with 0.8 ml of NGM agar (Lewis, J. A. and J. T. Fleming, Basic culture methods, in Caenorhabditis elegans: Modern Biological Analysis of an Organism, H. F. Epstein and D. C. Shakes, Editors. 1995, Academic Press: San Diego, Calif. pp. 3-29) containing compound additions as indicated. Compound solutions and dilutions were prepared in DMSO, and the appropriate amounts of compound were added to aliquots of molten NGM agar (equilibrated in a 55° C. water bath) prior to pouring the wells. For each compound, assays were performed using a range of final compound concentrations in the agar (0, 2, 5, 10, 20 and 30 ug/ml β-naphthoflavone; 0, 25, 50, 100, 250, and 77 ug/ml atrazine; 0, 20, 40, 60, 80 and 100 ug/ml primaquine). The final concentration of DMSO in the agar was 1% in every case, and controls of no addition and of 1% DMSO were also included in every assay series. Once the agar was solidified, each well was seeded with a lawn of E. coli OP50-1 prior to the addition of nematodes. All assays were performed in duplicate. Two different assay strategies were used to assess compound effects on nematode growth and viability: L1 assay: Synchrono5us nematode cultures of the wild-type strain N2 and of the mutant nhr-8(ok186) were obtained by isolating L1 larvae as described Lewis, J. A. and J. T. Fleming, Basic culture methods, in Caenorhabditis elegans: Modern Biological Analysis of an Organism, H. F. Epstein and D. C. […] The actual number of worms in each well was determined by direct count. […] After incubation at 20° C. for ˜72 hours, larval growth was assessed in each well by counting the number of gravid adults, L4 larvae/non-gravid adults, and larvae younger than the L4 stage. […] This difference was recorded as a “missing” class.

[2] = system: C. elegans wild type (N2), nhr-8(ok186), pgp-3(pk18) and nhr-8(ok186); pgp-3(pk18) worms
Description: Assays for nematode killing by selected toxins were performed in polystyrene 12-well tissue culture plates from Costar (Corning, N.Y.). Concentrated stock solutions of toxins were purified by filtration through 0.2 μm nitrocellulose filters (Corning, Corning, N.Y.). Because the toxin concentrations were not measured following filtration, the molarities of the solutions are estimates. Concentrated toxin stock solutions were serially diluted with S media (0.1 M NaCl, 0.05M potassium phosphate, 5 μg/ml cholesterol, 0.05 mM disodium EDTA, 0.025 mM FeSO4.7H2O, 0.001 mM MnCl2.4H2O, 0.001 mM ZnSO4.7H2O, 0.0001 mM CuSO4.5H2O, […]) to produce appropriate working solutions. To provide a bacterial food source, a saturated culture of E. coli OP50 [43] grown in LB was pelleted and resuspended in each toxin solution. For each 50 ml of toxin solution, 25 ml of the bacterial culture was pelleted for resuspension. Serial dilutions were made in bulk and aliquoted into individual wells (1 ml per well).
To assess killing by the toxins, single hermaphrodites were allowed to lay eggs in individual wells for a 12 hour interval, then transferred to fresh wells. Hatched larvae in each well were counted 12 hours after removal of the hermaphrodite and observed over the course of seven days for development and survival to adulthood [wild type animals complete postembryonic development within 3 days, 29].

[3] = system: C. elegans CYP genes (CYP35A1-A5, CYP35B1-B3, CYP35C, CYP31A1, CYP31A3); test: Induction of cytochrome P450 gene expression, semi-quantitative RT-PCR; assay type: in vivo, Caenorhabditis elegans; details: 5 ug/ml beta-naphthaflavone plus 1% DMSO or 1 mM chloroquine; ~72 hours at 20° C.; observed in both N2 and nhr-8(ok186) animals; FIG. 15
Description: The plates were incubated at 20° C. for ˜72 hours to allow for nematode growth and exposure to compound. Nematodes were then harvested, washed 3× in M9 to remove residual bacteria, and flash frozen in liquid nitrogen. Total RNA was isolated from the frozen nematodes as described (Sluder, A., S. W. Mathews, D. Hough, V. P. Yin, and C. V. Maina, The nuclear receptor superfamily has undergone extensive proliferation and diversification in nematodes. Genome Research, 1999. 9: 103-120).
The levels of cytochrome P450 mRNA in each RNA prep were assayed by semi-quantitative RT-PCR, using primers for specific cytochrome P450 gene sequences presented in Tables 5 and 6, in which nucleotides at degenerate positions are indicated using (N/N). […] Prior to performing PCR amplification to assess gene expression levels, the number of amplification cycles to be employed with each primer pair was selected to ensure that the amplification reactions remained within the linear reaction range [cycle number was selected as described in Johnstone, I. L. and J. D. Barry, Temporal reiteration of a precise gene expression pattern during nematode development Embo J. 1996, 15: 3633-3639, except that reaction products were analyzed by ethidium bromide-staining rather than Southern blotting]. […]

[4] = system: C. elegans nhr-8(RNAi) worms; test: Colchicine toxicity assay after RNA-mediated interference of nhr-8; assay type: in vivo, Caenorhabditis elegans; details: nhr-8(RNAi) vs nhr-8(ok186); percentage surviving to the adult stage; FIG. 7
Description: Single RNA strands were produced with the Ambion MEGAscript in vitro transcription kit, using as template a PCR amplicon (produced from cm14e12 using primers EL-15 and T7) that lacked sequences encoding the NHR-8 DNA binding domain. To produce dsRNA, equal amounts of sense and antisense transcription reactions and 3× injection buffer (20 mM KPO4 pH 7.5, 3 mM KCitrate pH 7.5, 2% PEG6000) were combined and incubated on a thermal cycler for strand annealing (95° C., 20 sec.; reduced by 2° C. per 10 sec. cycle for 11 cycles). Both gonad arms of young adult hermaphrodites were injected with the dsRNA [25]. Following a 12 hour purge period to remove embryos unlikely to have received a full dose of dsRNA, the injected hermaphrodites were used in the colchicine toxicity assay described above.

| Structure (SMILES) | Sensitivity of nhr-8(ok186) mutant animals compared with wild-type (N2), L1 assay [1] | Toxin sensitivity of nhr-8(ok186) homozygotes compared with wild type animals (percentage surviving to the adult stage) ([2]; in vivo) | CYP genes whose expression was induced [3] | other results |
| --- | --- | --- | --- | --- |
| CCNc1nc(Cl)nc(NC(C)C)n1 [atrazine] | slightly increased sensitivity |  |  |  |
| CCN(CC)CCCC(C)Nc1ccnc2cc(Cl)ccc12 (centres unmarked) [chloroquine] |  | more sensitive | CYP35A1, CYP35B1, CYP35B2, and CYP35B3 | Toxin sensitivity of nhr-8(ok186); pgp-3(pk18) double mutant animals compared with animals with only a single disrupted gene ([2]; in vivo): more sensitive |
| COc1cc2c(c(OC)c1OC)-c1ccc(OC)c(=O)cc1[C@@H](NC(C)=O)CC2 [colchicine] |  | more sensitive |  | Toxin sensitivity of nhr-8(ok186); pgp-3(pk18) double mutant animals compared with animals with only a single disrupted gene ([2]; double mutant vs single mutants, FIG. 6): more sensitive; Toxin sensitivity of nhr-8(ok186) animals compared with pgp-3 putative null mutants ([2]; nhr-8(ok186) vs pgp-3(pk18), FIG. 6): as sensitive; Colchicine sensitivity after disruption of nhr-8 function by RNA mediated interference [4]: phenocopies the colchicine sensitivity of the nhr-8(ok186) mutants |
| COc1cc(NC(C)CCCN)c2ncccc2c1 (centres unmarked) [primaquine] | increased sensitivity |  |  |  |
| O=c1cc(-c2ccccc2)oc2ccc3ccccc3c12 [β-naphthoflavone] |  |  | CYP35A3 and CYP35A4 | Difference in sensitivity of wild-type (N2) and nhr-8(ok186) mutant animals ([1]; preliminary experiments, data not shown): did not reveal any detectable differences |
